According to publication PMC1989143, “An Expanded Set of Amino Acid Analogs for the Ribosomal Translation of Unnatural Peptides” (PLoS ONE, 2007):
Values belong to the compound of their own block, whether it stands above or below them.

How the values were obtained:
Assay in all cases: tRNA aminoacylation competition assay, MALDI-TOF MS
Type in all cases: biochemical
MetRS = target: T1, MetRS (Escherichia coli, UniProt P00959); conditions: 50000 µM; 50 µM natural Met (Table 3), 6 mM ATP, 17 mM MgCl2, E. coli total tRNA, pH 7.4, 37 °C; competitive
T1 construct: gene metG; His-tagged, recombinant, purified
T1 sequence (P00959 2-677): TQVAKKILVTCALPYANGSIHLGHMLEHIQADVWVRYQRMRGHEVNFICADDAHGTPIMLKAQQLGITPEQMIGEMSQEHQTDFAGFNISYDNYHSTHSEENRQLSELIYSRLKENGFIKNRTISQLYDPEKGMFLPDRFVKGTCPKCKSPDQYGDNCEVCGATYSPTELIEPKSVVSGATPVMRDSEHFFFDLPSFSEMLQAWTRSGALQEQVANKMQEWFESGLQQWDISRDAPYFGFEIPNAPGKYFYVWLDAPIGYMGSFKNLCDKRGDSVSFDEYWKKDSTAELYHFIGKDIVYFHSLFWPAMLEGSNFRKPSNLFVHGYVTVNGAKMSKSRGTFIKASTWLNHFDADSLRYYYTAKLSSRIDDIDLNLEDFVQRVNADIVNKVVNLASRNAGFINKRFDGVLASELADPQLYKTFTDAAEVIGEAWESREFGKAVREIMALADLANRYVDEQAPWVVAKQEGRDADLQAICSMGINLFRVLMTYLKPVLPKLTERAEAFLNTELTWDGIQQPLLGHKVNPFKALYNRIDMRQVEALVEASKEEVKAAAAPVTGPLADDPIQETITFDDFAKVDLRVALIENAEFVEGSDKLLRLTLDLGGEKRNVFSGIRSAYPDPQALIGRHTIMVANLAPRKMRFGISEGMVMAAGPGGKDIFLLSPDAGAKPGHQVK
Text: tRNA aminoacylation competition assay, MALDI-TOF MS on MetRS

LeuRS = target: T2, LeuRS (Escherichia coli, UniProt P07813); conditions: 30000 µM; 30 µM natural Leu (Table 3), 6 mM ATP, 17 mM MgCl2, E. coli total tRNA, pH 7.4, 37 °C; competitive
T2 construct: gene leuS; His-tagged, recombinant, purified; wild-type
Text: tRNA aminoacylation competition assay, MALDI-TOF MS on LeuRS

TyrRS = target: T3, TyrRS (Escherichia coli, UniProt P0AGJ9); conditions: 5000 µM; 5 µM natural Tyr (Table 3), 6 mM ATP, 17 mM MgCl2, E. coli total tRNA, pH 7.4, 37 °C; competitive
T3 construct: gene tyrS; His-tagged, recombinant, purified
Text: tRNA aminoacylation competition assay, MALDI-TOF MS on TyrRS

ValRS = target: T4, ValRS (Escherichia coli, UniProt P07118); conditions: 50000 µM; 50 µM natural Val (Table 3), 6 mM ATP, 17 mM MgCl2, E. coli total tRNA, pH 7.4, 37 °C; competitive
T4 construct: gene valS; His-tagged, recombinant, purified
T4 sequence (P07118 1-951): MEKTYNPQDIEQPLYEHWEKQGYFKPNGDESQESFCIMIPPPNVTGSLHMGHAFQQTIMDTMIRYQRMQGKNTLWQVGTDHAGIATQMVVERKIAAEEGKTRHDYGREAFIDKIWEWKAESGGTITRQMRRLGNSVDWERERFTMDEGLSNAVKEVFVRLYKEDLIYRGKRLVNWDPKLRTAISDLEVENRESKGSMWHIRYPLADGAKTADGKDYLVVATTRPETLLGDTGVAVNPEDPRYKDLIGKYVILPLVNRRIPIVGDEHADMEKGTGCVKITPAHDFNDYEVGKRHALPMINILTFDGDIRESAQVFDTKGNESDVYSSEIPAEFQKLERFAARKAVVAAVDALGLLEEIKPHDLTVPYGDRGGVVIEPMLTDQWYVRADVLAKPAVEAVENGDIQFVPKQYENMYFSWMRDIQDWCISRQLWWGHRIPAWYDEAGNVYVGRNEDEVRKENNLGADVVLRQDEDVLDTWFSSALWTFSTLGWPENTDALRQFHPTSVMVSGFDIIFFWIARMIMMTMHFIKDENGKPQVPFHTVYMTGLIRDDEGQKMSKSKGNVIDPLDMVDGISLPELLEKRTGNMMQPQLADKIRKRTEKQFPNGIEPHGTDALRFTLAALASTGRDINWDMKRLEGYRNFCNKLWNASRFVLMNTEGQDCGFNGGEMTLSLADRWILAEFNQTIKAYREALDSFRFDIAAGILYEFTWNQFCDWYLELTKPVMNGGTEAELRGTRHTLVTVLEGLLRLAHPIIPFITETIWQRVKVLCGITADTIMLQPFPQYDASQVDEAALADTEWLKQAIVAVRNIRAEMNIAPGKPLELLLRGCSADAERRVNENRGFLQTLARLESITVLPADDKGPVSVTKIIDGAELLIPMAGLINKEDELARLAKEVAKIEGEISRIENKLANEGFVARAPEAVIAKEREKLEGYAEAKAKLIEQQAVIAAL
Text: tRNA aminoacylation competition assay, MALDI-TOF MS on ValRS

ArgRS = target: T5, ArgRS (Escherichia coli, UniProt P11875); conditions: 20000 µM; 20 µM natural Arg (Table 3), 6 mM ATP, 17 mM MgCl2, E. coli total tRNA, pH 7.4, 37 °C; competitive
T5 construct: gene argS; His-tagged, recombinant, purified
T5 sequence (P11875 1-577): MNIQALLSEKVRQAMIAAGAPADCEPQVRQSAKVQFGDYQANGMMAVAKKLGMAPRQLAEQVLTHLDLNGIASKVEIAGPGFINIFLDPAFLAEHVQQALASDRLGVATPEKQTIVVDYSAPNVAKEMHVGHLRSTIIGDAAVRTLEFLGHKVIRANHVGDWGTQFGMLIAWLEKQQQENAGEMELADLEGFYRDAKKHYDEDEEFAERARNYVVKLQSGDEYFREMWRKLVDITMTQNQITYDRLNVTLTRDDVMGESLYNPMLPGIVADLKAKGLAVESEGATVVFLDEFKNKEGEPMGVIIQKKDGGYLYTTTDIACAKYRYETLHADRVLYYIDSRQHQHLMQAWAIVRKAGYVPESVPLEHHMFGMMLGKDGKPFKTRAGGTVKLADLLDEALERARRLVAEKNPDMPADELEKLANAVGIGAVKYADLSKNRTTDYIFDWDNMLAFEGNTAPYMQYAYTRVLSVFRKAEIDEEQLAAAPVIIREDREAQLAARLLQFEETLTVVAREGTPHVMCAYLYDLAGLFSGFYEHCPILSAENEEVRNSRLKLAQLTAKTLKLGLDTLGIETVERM
Text: tRNA aminoacylation competition assay, MALDI-TOF MS on ArgRS

TrpRS = target: T6, TrpRS (Escherichia coli, UniProt P00954); conditions: 30000 µM; 30 µM natural Trp (Table 3), 6 mM ATP, 17 mM MgCl2, E. coli total tRNA, pH 7.4, 37 °C; competitive
T6 construct: gene trpS
Text: tRNA aminoacylation competition assay, MALDI-TOF MS on TrpRS

GluRS = target: T7, GluRS (Escherichia coli, UniProt P04805); conditions: 10000 µM; 10 µM natural Glu (Table 3), 6 mM ATP, 17 mM MgCl2, E. coli total tRNA, pH 7.4, 37 °C; competitive
T7 construct: gene gltX; His-tagged, recombinant, purified
T7 sequence (P04805 1-471): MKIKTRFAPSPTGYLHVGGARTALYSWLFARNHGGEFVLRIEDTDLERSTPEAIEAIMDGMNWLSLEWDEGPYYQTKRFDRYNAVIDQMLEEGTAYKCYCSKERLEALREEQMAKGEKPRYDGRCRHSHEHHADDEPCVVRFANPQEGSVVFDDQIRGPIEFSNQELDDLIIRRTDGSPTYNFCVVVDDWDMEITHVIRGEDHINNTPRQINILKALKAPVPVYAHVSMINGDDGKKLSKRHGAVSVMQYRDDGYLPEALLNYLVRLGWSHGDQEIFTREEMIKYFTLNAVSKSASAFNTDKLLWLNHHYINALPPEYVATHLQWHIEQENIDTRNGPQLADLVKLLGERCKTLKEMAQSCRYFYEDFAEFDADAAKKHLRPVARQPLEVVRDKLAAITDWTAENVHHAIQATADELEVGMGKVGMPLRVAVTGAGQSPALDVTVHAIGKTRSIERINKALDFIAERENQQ
Text: tRNA aminoacylation competition assay, MALDI-TOF MS on GluRS

HisRS = target: T8, HisRS (Escherichia coli, UniProt P60906); conditions: 15000 µM; 15 µM natural His (Table 3), 6 mM ATP, 17 mM MgCl2, E. coli total tRNA, pH 7.4, 37 °C; competitive
T8 construct: gene hisS; His-tagged, recombinant, purified
T8 sequence (P60906 2-424): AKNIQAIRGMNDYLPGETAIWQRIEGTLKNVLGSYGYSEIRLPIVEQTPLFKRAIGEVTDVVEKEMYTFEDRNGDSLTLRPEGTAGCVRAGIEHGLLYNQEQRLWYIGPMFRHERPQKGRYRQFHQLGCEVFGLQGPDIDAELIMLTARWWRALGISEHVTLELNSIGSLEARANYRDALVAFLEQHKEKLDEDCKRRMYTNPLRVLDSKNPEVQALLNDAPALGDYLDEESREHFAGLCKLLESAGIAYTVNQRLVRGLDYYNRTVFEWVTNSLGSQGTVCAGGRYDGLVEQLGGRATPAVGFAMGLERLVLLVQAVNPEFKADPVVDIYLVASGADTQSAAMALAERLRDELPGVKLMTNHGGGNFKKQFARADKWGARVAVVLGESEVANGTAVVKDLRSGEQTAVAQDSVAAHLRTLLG
Text: tRNA aminoacylation competition assay, MALDI-TOF MS on HisRS

ProRS = target: T9, ProRS (Escherichia coli, UniProt P16659); conditions: 50000 µM; 50 µM natural Pro (Table 3), 6 mM ATP, 17 mM MgCl2, E. coli total tRNA, pH 7.4, 37 °C; competitive
T9 construct: gene proS; His-tagged, recombinant, purified
T9 sequence (P16659 1-572): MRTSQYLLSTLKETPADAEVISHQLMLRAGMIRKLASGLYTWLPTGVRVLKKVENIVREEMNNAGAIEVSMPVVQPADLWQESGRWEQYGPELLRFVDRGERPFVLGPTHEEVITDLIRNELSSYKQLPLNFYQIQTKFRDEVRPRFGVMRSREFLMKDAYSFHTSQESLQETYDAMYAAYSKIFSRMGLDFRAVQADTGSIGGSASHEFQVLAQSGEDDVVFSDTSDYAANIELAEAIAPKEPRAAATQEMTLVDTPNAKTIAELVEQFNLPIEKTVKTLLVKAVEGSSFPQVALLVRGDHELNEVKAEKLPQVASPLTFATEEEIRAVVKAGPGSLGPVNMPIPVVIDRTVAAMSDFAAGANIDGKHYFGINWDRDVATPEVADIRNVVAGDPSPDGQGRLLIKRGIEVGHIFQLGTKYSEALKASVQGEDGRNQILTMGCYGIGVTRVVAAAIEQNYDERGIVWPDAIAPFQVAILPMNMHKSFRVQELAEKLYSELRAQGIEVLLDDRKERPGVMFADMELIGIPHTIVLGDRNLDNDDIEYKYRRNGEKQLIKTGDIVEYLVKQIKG
Text: tRNA aminoacylation competition assay, MALDI-TOF MS on ProRS

AspRS = target: T10, AspRS (Escherichia coli, UniProt P21889); conditions: 50000 µM; 50 µM natural Asp (Table 3), 6 mM ATP, 17 mM MgCl2, E. coli total tRNA, pH 7.4, 37 °C; competitive
T10 construct: gene aspS; His-tagged, recombinant, purified
Text: tRNA aminoacylation competition assay, MALDI-TOF MS on AspRS

% Inhibition ^b (MetRS): 73 (range 0.5) %
Compound: CCCC[C@H](N)C(=O)O [N3, L-norleucine]

% Inhibition ^b (MetRS): 82 (range 3.3) %
Compound: C#CCCC(N)C(=O)O (stereo not drawn) [N1, 2-amino hex-5-ynoic acid]

% Inhibition ^b (LeuRS): 52 (range 22.2) %
Compound: CC(C)(C)C[C@H](N)C(=O)O [N18, β-t-butyl-alanine]

Compound: NC(Cc1ccc(O)c(F)c1)C(=O)O (stereo not drawn) [A3, 3-fluoro tyrosine]
% Inhibition ^b (TyrRS): 46 (range 23.0) %

% Inhibition ^b (ValRS): 80 (range 0.4) %
Compound: CC(C)(C)C(N)C(=O)O (stereo not drawn) [N13, t-butyl-glycine]

Compound: N=C(N)NOCC[C@H](N)C(=O)O [C10, L-canavanine]
% Inhibition ^b (ArgRS): 82 (range 10.3) %

% Inhibition ^b (TrpRS): 19 (range 2.7) %
Compound: N[C@@H](Cc1csc2ccccc12)C(=O)O [A23, 3-(thianaphthen-3-yl)-L-alanine]

Compound: N[C@@H](Cn1oc(=O)[nH]c1=O)C(=O)O [A15, L-quisqualic acid]
% Inhibition ^b (GluRS): 52 (range 1.2) %

% Inhibition ^b (HisRS): 20 (range 0.4) %
Compound: N[C@@H](Cc1nccs1)C(=O)O [A1, β-2-thiazolyl-alanine]

% Inhibition ^b (LeuRS): 83 (range 16.7) %
Compound: CC(CC(N)C(=O)O)C(F)(F)F (stereo not drawn) [N17, 5′,5′,5′-trifluoro leucine]

% Inhibition ^b (ProRS): 67 (range 12.6) %
Compound: O=C(O)[C@@H]1C=CCN1 [N23, 3,4-dehydro proline]

% Inhibition ^b (AspRS): 59 (range 0.5) %
Compound: N[C@H](C(=O)O)[C@H](O)C(=O)O [C6, L-threo-β-hydroxy aspartic acid]

% Inhibition ^b (ValRS): 59 (range 3.3) %
Compound: NC1(C(=O)O)CCCC1 [α1, 1-amino cyclopentanoic acid]

Compound: O=C(O)[C@@H]1CCN1 [N24, L-azetidine-2-carboxylic acid]
% Inhibition ^b (ProRS): 28 (range 10.0) %

% Inhibition ^b (MetRS): 97 (range 0.5) %
Compound: [N-]=[N+]=NCC[C@H](N)C(=O)O [N6]
